According to patent US20180273531A1, “PYRIMIDINE COMPOUND AND MEDICAL USE THEREOF” (Japan Tobacco Inc., priority 2004, published 2018):
pIC50: −log10 of the molar value.

Columns and labels:
Assay type in all cases: cell-based
[1] = test system: Renal cancer cell line ACHN cell; assay: Growth inhibitory effect against cancer cell lines (3H-thymidine uptake), ACHN; details: Homo sapiens, ACHN
Experimental: Renal cancer cell line ACHN cell or colorectal cancer cell line HT-29 cells were cultured in a 96 well plate at 1.0×10^4 cells/90 μL/well for 24 hrs, then a test substance dissolved in DMSO (dimethyl sulfoxide) was added. After 18 hrs, ^3H-thymidine (0.25 μCi/well) was added and the cells were cultured for 6 hrs. Using a cell harvester, the cells were recovered on a UniFilter-96 GF/B glass filter and the ^3H radioactivity uptaken by the cells was measured by TopCount (Packard). As a control, DMSO was used and the activity of the test substance was expressed in the concentration (IC50) necessary for inhibiting ^3H radioactivity uptaken by the cell to 50% of that of the control group. The measurements were made in triplicate.

[2] = test system: colorectal cancer cell line HT-29 cells; assay: Growth inhibitory effect against cancer cell lines (3H-thymidine uptake), HT-29; details: Homo sapiens, HT-29, inhibition of 3H-thymidine uptake; test substance 18 hrs, then 3H-thymidine 6 hrs; triplicate
Procedure, shortened: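 Cells seeded at 1.0×10^4/well, grown 24 hrs, then exposed to compound in DMSO for 18 hrs before 6 hrs pulse with ^3H-thymidine (0.25 μCi/well). Harvested cell-incorporated radioactivity counted; IC50 is the concentration halving uptake versus DMSO control, triplicate.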

p27 protein = p27 protein induction test (Western blotting); details: test substance (0.1 1M), 24 hrs, ACHN cells or HT-29 cells, compared to DMSO, n=2
Experimental: ACHN cells or HT-29 cells were cultured in a 6 well plate at 2.5×10^5 cells/1.8 mL/well for 24 hrs, a test substance ([…]) dissolved in DMSO was added. After 24 hrs, cells were detached using trypsin-EDTA (ethylene diamine tetraacetic acid) and solubilized with NuPAGE LDS sample buffer (Invitrogen). Using an RC DC protein assay kit (BIO-RAD), the protein concentration of the sample was quantitated, and a sample in an amount corresponding to 10 μg of BSA (bovine serum albumin) was analyzed by Western blotting using an anti-p27 antibody. The density of the band stained with the anti-p27 antibody was measured by a densitometer to quantify the amount of p27 protein. As a control, DMSO was used and the test was performed with n=2 and the average protein amount was determined.

pIC50 [1] | pIC50 [2] | SMILES | fold induction at 0.1 µM (p27 protein)
> 8.00 | > 8.00 | C#Cc1ccc(Nc2cc(=O)n(C)c3c2c(=O)n(C2CC2)c(=O)n3-c2cccc(NS(C)(=O)=O)c2)c(F)c1 [Example 1-260] | ≥ 1.5
6.00 to 7.00 | > 8.00 | Cn1c(=O)cc(Nc2ccc(Br)cc2F)c2c(=O)n(C3CC3)c(=O)n(-c3cccc(NC(=O)CO)c3)c21 [Example 1-263] | ≥ 1.5
6.00 to 7.00 | 7.00 to 8.00 | Cn1c(=O)cc(Nc2ccc(Br)cc2F)c2c(=O)n(C3CC3)c(=O)n(-c3cccc(NCCN4CCOCC4)c3)c21 [Example 1-303] | ≥ 1.5
6.00 to 7.00 | 7.00 to 8.00 | CCNC(=O)Nc1cccc(-n2c(=O)n(C3CC3)c(=O)c3c(Nc4ccc(Br)cc4F)cc(=O)n(C)c32)c1 [Example 1-307] | ≥ 1.5
> 8.00 | > 8.00 | CCCS(=O)(=O)Nc1cccc(-n2c(=O)n(C3CC3)c(=O)c3c(Nc4ccc(I)cc4F)cc(=O)n(C)c32)c1 [Example 1-311] | ≥ 1.5
7.00 to 8.00 | > 8.00 | CCc1ccc(Nc2cc(=O)n(C)c3c2c(=O)n(C2CC2)c(=O)n3-c2cccc(NS(C)(=O)=O)c2)c(F)c1 [Example 1-275] | ≥ 1.5
6.00 to 7.00 | 7.00 to 8.00 | CN(c1cccc(-n2c(=O)n(C3CC3)c(=O)c3c(Nc4ccc(Br)cc4F)cc(=O)n(C)c32)c1)S(C)(=O)=O [Example 1-228] | ≥ 1.5
7.00 to 8.00 | > 8.00 | CN(C)S(=O)(=O)Nc1cccc(-n2c(=O)n(C3CC3)c(=O)c3c(Nc4ccc(Br)cc4F)cc(=O)n(C)c32)c1 [Example 1-309] | ≥ 1.5
6.00 to 7.00 | 7.00 to 8.00 | COCCN(C)c1cccc(-n2c(=O)n(C3CC3)c(=O)c3c(Nc4ccc(Br)cc4F)cc(=O)n(C)c32)c1 [Example 1-253] | ≥ 1.5
> 8.00 | > 8.00 | CCS(=O)(=O)Nc1cccc(-n2c(=O)n(C3CC3)c(=O)c3c(Nc4ccc(I)cc4F)cc(=O)n(C)c32)c1 [Example 1-274] | ≥ 1.5
6.00 to 7.00 | 7.00 to 8.00 | CCCC(=O)Nc1cccc(-n2c(=O)n(C3CC3)c(=O)c3c(Nc4ccc(Br)cc4F)cc(=O)n(C)c32)c1 [Example 1-279] | ≥ 1.5
6.00 to 7.00 | > 8.00 | C#Cc1ccc(Nc2cc(=O)n(C)c3c2c(=O)n(C2CC2)c(=O)n3-c2cccc(S(C)(=O)=O)c2)c(F)c1 [Example 1-259] | ≥ 1.5
7.00 to 8.00 | > 8.00 | CCS(=O)(=O)Nc1cccc(-n2c(=O)n(C3CC3)c(=O)c3c(Nc4ccc(Br)cc4F)n(C)c(=O)c(C)c32)c1 [Example 3-5] | ≥ 1.5
6.00 to 7.00 | 7.00 to 8.00 | CCCCC(=O)NCCC(=O)Nc1cccc(-n2c(=O)n(C3CC3)c(=O)c3c(Nc4ccc(Br)cc4F)cc(=O)n(C)c32)c1 [Example 1-299] | ≥ 1.5
6.00 to 7.00 | 7.00 to 8.00 | Cn1c(=O)cc(Nc2ccc(Br)cc2F)c2c(=O)n(C3CC3)c(=O)n(-c3cccc(S(=O)(=O)N4CCOCC4)c3)c21 [Example 1-316] | ≥ 1.5
7.00 to 8.00 | > 8.00 | CCS(=O)(=O)Nc1cccc(-n2c(=O)n(C3CC3)c(=O)c3c(Nc4ccc(Br)cc4F)cc(=O)n(C)c32)c1 [Example 1-262] | ≥ 1.5
6.00 to 7.00 | > 8.00 | CC(=O)Nc1cc(-n2c(=O)n(C3CC3)c(=O)c3c(Nc4ccc(I)cc4F)n(C)c(=O)c(C)c32)ccc1F [Example 4-99] | ≥ 1.5
7.00 to 8.00 | > 8.00 | C#Cc1ccc(Nc2cc(=O)n(C)c3c2c(=O)n(C2CC2)c(=O)n3-c2cccc(NC(C)=O)c2)c(F)c1 [Example 1-310] | ≥ 1.5
